Experimental data: patent publication US9562085B2, “Antimicrobial peptide” (priority 2013, dated 2017)
Non-standard residues stand in square brackets, D forms with d. Residues, ends and D or L forms follow the SMILES beside them.

Tested on: MRSA LUH14616
Test: In vitro killing assay on mid-log phase bacteria, MRSA LUH14616
Assay type: cell-based, Staphylococcus aureus
Settings: MRSA LUH14616 in PBS, 1 hour at 37° C.; 90% Inhibitory Concentration, linear regression
From the text: The clinical isolate of methicillin-resistant Staphylococcus aureus (MRSA), LUH14616 was kindly provided by Dr. S. Croes, Maastricht University Medical Center, Maastricht, Netherlands (see S.B.M.C. Croes, Microbiol. 2009; 9:229. doi: 10.1186/1471-2180-9-229) and that of mupirocine-resistant MRSA LUH15051 was a gift from Dr. M.E.O.C. Heck (Laboratory for Infectious Diseases and Screening, National Institute for Public Health and Environment, RIVM, Bilthoven, Netherlands).
Bacteria were stored at -80° C. until use. Inoculi of mid-log phase bacteria were prepared by incubating isolated MRSA colonies from blood agar plates in Tryptic Soy Broth (TSB) medium (Becton Dickinson, Le Pont de Clax, France) for 2.5 hours and then diluted to the concentration needed.
For the in vitro killing assay on mid-log phase bacteria, MRSA LUH14616 and MRSA LUH15051 were resuspended to a concentration of 1×10^6 bacteria/ml in PBS. Subsequently, 200 μl was added to a concentration range of peptides LL-37, P60.4Ac (OP-145) and P10 that were lyophilized in advance. Subsequently, the bacteria-peptide mixture was incubated for 1 hour at 37° C. To establish the killing capacity of these peptides, the suspensions were serially diluted and plated onto DST agar plates to measure viable CFU counts. IC90, IC99 and IC99.9 values are calculated by linear regression analysis.

Molecule	IC90 [nM]
Ac-IGKEFKRIVERIKRFLRELVRPLR-NH2 (N-terminus and C-terminus assumed) [Peptide P60.4Ac, reference compound]	750

Tested on: S. aureus JAR
Test: not given
Assay type: cell-based
Settings: JAR, 2 h
Description: S. aureus JAR is described in Campoccia et al. (Int. J. Artif. Organs, 2008 September; 31(9):841-7).
For the in vitro killing assay with P10 variants, S. aureus JAR ([…] CFU/ml) were incubated for 2 hours at 37° C. with various concentrations of the peptides in PBS or in PBS/human plasma (1/1, v/v). […] The LC99.9 is the average value of two independent experiments.

Molecule	LC99.9 (μM) (50% plasma) [µM]	LC99.9 (μM) (PBS) [µM]
CC[C@H](C)[C@H](NC(=O)[C@H](CCCCN)NC(=O)[C@H](CCCCN)NC(=O)[C@H](Cc1ccc(O)cc1)NC(=O)[C@H](CCC(=O)O)NC(=O)[C@H](CCCNC(=N)N)NC(=O)[C@H](C)NC(=O)[C@H](CC(C)C)NC(C)=O)C(=O)N[C@H](C(=O)N[C@@H](CCC(=O)O)C(=O)N[C@@H](CCCCN)C(=O)N[C@@H](CC(C)C)C(=O)N[C@@H](CCCCN)C(=O)N[C@@H](CCCNC(=N)N)C(=O)N[C@@H](Cc1c[nH]c2ccccc12)C(=O)N[C@@H](CC(C)C)C(=O)N[C@@H](CCCNC(=N)N)C(=O)N[C@H](CCC(N)=O)C(=O)N[C@H](C(=O)N[C@@H](CC(C)C)C(=O)N[C@@H](CCCNC(=N)N)C(=O)N[C@H](C(=O)N[C@@H](CC(C)C)C(=O)N[C@@H](CCCNC(=N)N)C(N)=O)[C@@H](C)O)C(C)C)C(C)C [Peptide 1301-18, JLAREYKKIVEKLKRWLRqVLRTLRB] (Ac-LAREYKKIVEKLKRWLR[dQ]VLRTLR-NH2)	38.4	0.6
Ac-LAREYKKIVEKVKRWLRQVLRTLR-NH2 [Peptide 1302-34, JLAREYKKIVEKVKRWLRQVLRTLRB]	102.4	3.2
CC[C@H](C)[C@H](NC(=O)[C@H](CCCCN)NC(=O)[C@H](CCCCN)NC(=O)[C@H](Cc1ccc(O)cc1)NC(=O)[C@H](CCC(=O)O)NC(=O)[C@H](CCCNC(=N)N)NC(=O)[C@H](C)NC(=O)[C@H](CC(C)C)NC(C)=O)C(=O)N[C@H](C(=O)N[C@@H](CCC(=O)O)C(=O)N[C@@H](CCCCN)C(=O)N[C@@H](CC(C)C)C(=O)N[C@@H](CCCCN)C(=O)N[C@@H](CCCNC(=N)N)C(=O)N[C@H](Cc1c[nH]c2ccccc12)C(=O)N[C@@H](CC(C)C)C(=O)N[C@@H](CCCNC(=N)N)C(=O)N[C@@H](CCC(N)=O)C(=O)N[C@H](C(=O)N[C@@H](CC(C)C)C(=O)N[C@@H](CCCNC(=N)N)C(=O)N[C@H](C(=O)N[C@@H](CC(C)C)C(=O)N[C@@H](CCCNC(=N)N)C(N)=O)[C@@H](C)O)C(C)C)C(C)C [Peptide 1301-15, JLAREYKKIVEKLKRwLRQVLRTLRB] (Ac-LAREYKKIVEKLKR[dW]LRQVLRTLR-NH2)	38.4	0.4
Ac-YKKIVEKLKRWLRQVLRTLR-NH2 [Peptide 1302-59, JYKKIVEKLKRWLRQVLRTLRB]	51.2	1.6
Ac-LAREYKKIVEKLKRWLRQVVRTLR-NH2 [Peptide 1302-48, JLAREYKKIVEKLKRWLRQVVRTLRB]	76.8	1.2
CC[C@H](C)[C@H](NC(=O)[C@H](CCCCN)NC(=O)[C@H](CCCCN)NC(=O)[C@H](Cc1ccc(O)cc1)NC(=O)[C@H](CCC(=O)O)NC(=O)[C@H](CCCNC(=N)N)NC(=O)[C@H](C)NC(=O)[C@H](CC(C)C)NC(C)=O)C(=O)N[C@H](C(=O)N[C@@H](CCC(=O)O)C(=O)N[C@@H](CCCCN)C(=O)N[C@H](CC(C)C)C(=O)N[C@@H](CCCCN)C(=O)N[C@@H](CCCNC(=N)N)C(=O)N[C@@H](Cc1c[nH]c2ccccc12)C(=O)N[C@@H](CC(C)C)C(=O)N[C@@H](CCCNC(=N)N)C(=O)N[C@@H](CCC(N)=O)C(=O)N[C@H](C(=O)N[C@@H](CC(C)C)C(=O)N[C@@H](CCCNC(=N)N)C(=O)N[C@H](C(=O)N[C@@H](CC(C)C)C(=O)N[C@@H](CCCNC(=N)N)C(N)=O)[C@@H](C)O)C(C)C)C(C)C [Peptide 1301-12, JLAREYKKIVEKlKRWLRQVLRTLRB] (Ac-LAREYKKIVEK[dL]KRWLRQVLRTLR-NH2)	32.0	0.6
CC[C@H](C)[C@H](NC(=O)[C@@H](CCCCN)NC(=O)[C@H](CCCCN)NC(=O)[C@H](Cc1ccc(O)cc1)NC(=O)[C@H](CCC(=O)O)NC(=O)[C@H](CCCNC(=N)N)NC(=O)[C@H](C)NC(=O)[C@H](CC(C)C)NC(C)=O)C(=O)N[C@H](C(=O)N[C@@H](CCC(=O)O)C(=O)N[C@@H](CCCCN)C(=O)N[C@@H](CC(C)C)C(=O)N[C@@H](CCCCN)C(=O)N[C@@H](CCCNC(=N)N)C(=O)N[C@@H](Cc1c[nH]c2ccccc12)C(=O)N[C@@H](CC(C)C)C(=O)N[C@@H](CCCNC(=N)N)C(=O)N[C@@H](CCC(N)=O)C(=O)N[C@H](C(=O)N[C@@H](CC(C)C)C(=O)N[C@@H](CCCNC(=N)N)C(=O)N[C@H](C(=O)N[C@@H](CC(C)C)C(=O)N[C@@H](CCCNC(=N)N)C(N)=O)[C@@H](C)O)C(C)C)C(C)C [Peptide 1301-7, JLAREYKkIVEKLKRWLRQVLRTLRB] (Ac-LAREYK[dK]IVEKLKRWLRQVLRTLR-NH2)	25.6	0.6
CC[C@H](C)[C@H](NC(=O)[C@H](CCCCN)NC(=O)[C@H](CCCCN)NC(=O)[C@H](Cc1ccc(O)cc1)NC(=O)[C@H](CCC(=O)O)NC(=O)[C@H](CCCNC(=N)N)NC(=O)[C@H](C)NC(=O)[C@H](CC(C)C)NC(C)=O)C(=O)N[C@H](C(=O)N[C@@H](CCC(=O)O)C(=O)N[C@@H](CCCCN)C(=O)N[C@@H](CC(C)C)C(=O)N[C@@H](CCCCN)C(=O)N[C@@H](CCCNC(=N)N)C(=O)N[C@@H](Cc1c[nH]c2ccccc12)C(=O)N[C@@H](CC(C)C)C(=O)N[C@@H](CCCNC(=N)N)C(=O)N[C@@H](CCC(N)=O)C(=O)N[C@H](C(=O)N[C@@H](CC(C)C)C(=O)N[C@@H](CCCNC(=N)N)C(=O)N[C@H](C(=O)N[C@@H](CC(C)C)C(=O)N[C@H](CCCNC(=N)N)C(N)=O)[C@@H](C)O)C(C)C)C(C)C [Peptide 1301-24, JLAREYKKIVEKLKRWLRQVLRTLrB] (Ac-LAREYKKIVEKLKRWLRQVLRTL[dR]-NH2)	19.2	0.6
Ac-IAREYKKIVEKLKRWLRQVLRTLR-NH2 [Peptide 1302-17, JIAREYKKIVEKLKRWLRQVLRTLRB]	102.4	1.6
Ac-KKIVEKLKRWLRQ-NH2 [Peptide 1302-63, JKKIVEKLKRWLRQB]	102.4	>3.2
